Among the data in patent US11254686B1 (Corvus Pharmaceuticals, Inc., priority 2017, dated 2022) are IC50 and Ratio values, retold here.

For one experiment, the target named is adenosine A2A receptor (Homo sapiens (Human), UniProt P29274). In words: Adenosine receptor activity assay (Table 1), A2A activity. Format: biochemical. The following applies: read-out: Ave A2A cAMP IC50.
The target in another experiment is adenosine A2B receptor (Homo sapiens (Human), UniProt P29275). In words: Adenosine receptor activity assay (Table 1), A2B activity. In kind it is biochemical. The following applies: for Ratio: A2A activity to A2B activity (A2A/A2B); for IC50: read-out: Ave A2B cAMP IC50.
adenosine A2B receptor, sequence (P29275 whole entry): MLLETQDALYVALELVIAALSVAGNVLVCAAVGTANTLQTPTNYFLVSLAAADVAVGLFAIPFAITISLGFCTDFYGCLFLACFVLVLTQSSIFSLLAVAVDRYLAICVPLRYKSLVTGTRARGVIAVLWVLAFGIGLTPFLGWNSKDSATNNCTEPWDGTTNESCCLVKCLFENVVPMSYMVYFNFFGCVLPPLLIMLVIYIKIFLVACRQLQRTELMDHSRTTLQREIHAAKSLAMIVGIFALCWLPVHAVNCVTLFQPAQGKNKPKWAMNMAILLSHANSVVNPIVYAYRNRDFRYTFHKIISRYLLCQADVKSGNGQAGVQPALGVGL

A word on the IC50: it is the concentration that gives 50% inhibition.

Molecules are shown by their SMILES. Some results are limits rather than exact numbers.

adenosine A2A receptor, sequence (P29274 whole entry): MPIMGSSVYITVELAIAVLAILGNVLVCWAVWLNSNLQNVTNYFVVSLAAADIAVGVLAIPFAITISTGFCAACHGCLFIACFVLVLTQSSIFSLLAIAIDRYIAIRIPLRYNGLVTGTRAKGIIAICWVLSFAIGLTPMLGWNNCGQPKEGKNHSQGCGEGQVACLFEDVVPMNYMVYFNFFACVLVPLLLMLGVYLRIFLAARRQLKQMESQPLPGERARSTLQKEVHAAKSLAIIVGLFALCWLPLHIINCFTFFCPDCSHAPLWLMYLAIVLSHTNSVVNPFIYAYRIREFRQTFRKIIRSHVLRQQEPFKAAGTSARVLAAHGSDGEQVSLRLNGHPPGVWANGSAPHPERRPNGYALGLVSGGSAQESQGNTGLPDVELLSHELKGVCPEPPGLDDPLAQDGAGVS

Take `CCC(NC(=O)c1nc(N[C@@H](C)c2cccnc2)nc2ccsc12)c1cccnc1` (stereo partly drawn) [Example Z24, 2-(((S)-1-(Pyridin-3-yl)ethyl)amino)-N-(1-(pyridin-3-yl)propyl)thieno[3,2-d]pyrimidine-4-carboxamide]: on adenosine A2A receptor, the IC50 was > 500 nM. Moreover, at adenosine A2B receptor, the Ratio was 2.92 and the 50% inhibitory concentration (IC50) lay within 100 to 500 nM.
Take `CCC(Nc1nc(C(=O)N2CCCC2)c2sccc2n1)c1cccnc1` (stereo not drawn) [Example Z25, (2-((1-(Pyridin-3-yl)propyl)amino)thieno[3,2-d]pyrimidin-4-yl)(pyrrolidin-1-yl)methanone]: the IC50 on adenosine A2A receptor lay within 100 to 500 nM; on adenosine A2B receptor, 10 to 50 nM.
For `CCC(Nc1nc(C(=O)N2CC[C@@H](OC)C2)c2sccc2n1)c1cccnc1` (stereo partly drawn) [Example Z26, ((R)-3-Methoxypyrrolidin-1-yl)(2-((1-(pyridin-3-yl)propyl)amino)thieno[3,2-d]pyrimidin-4-yl)methanone], at adenosine A2A receptor, the IC50 was 50 to 100 nM. On adenosine A2B receptor, the Ratio was 2.58 and the IC50 was 10 to 50 nM.
For `C[C@H](Nc1nc(C(=O)NCC2CCN(Cc3ccccc3)CC2)c2sccc2n1)c1cccnc1` [Example Z27, (S)—N-((1-benzylpiperidin-4-yl)methyl)-2-((1-(pyridin-3-yl)ethyl)amino)thieno[3,2-d]pyrimidine-4-carboxamide], in that order: 100 to 500 nM, 1.97 and 50 to 100 nM.
Take `C[C@H](Nc1nc(C(=O)N[C@H](C)c2cccnc2)c2sccc2n1)c1cccnc1` [Example Z30, N—((R)-1-(Pyridin-3-yl)ethyl)-2-(((S)-1-(pyridin-3-yl)ethyl)amino)thieno[3,2-d]pyrimidine-4-carboxamide]: the IC50 on adenosine A2A receptor is > 500 nM. Further, on adenosine A2B receptor, the Ratio is listed as 8.34 and the IC50 was in the range of 100 to 500 nM.
For `C[C@H](Nc1nc(C(=O)N2CCCCC2)c2sccc2n1)c1cccnc1` [Example Z31, (S)-Piperidin-1-yl(2-((1-(pyridin-3-yl)ethyl)amino)thieno[3,2-d]pyrimidin-4-yl)methanone], in that order: > 500 nM, 40.00 and 100 to 500 nM.
For `COc1ccc(CNC(=O)c2nc(N[C@@H](C)c3cccnc3)nc3ccsc23)cc1OC` [Example Z33, (S)—N-(3,4-Dimethoxybenzyl)-2-((1-(pyridin-3-yl)ethyl)amino)thieno[3,2-d]pyrimidine-4-carboxamide], in that order: > 500 nM, 4.57 and > 500 nM.
For `O=C(NCc1cccnn1)c1nc(NCc2cccnn2)nc2ccsc12` [Example Z35, N-(Pyridazin-3-ylmethyl)-2-((pyridazin-3-ylmethyl)amino)thieno[3,2-d]pyrimidine-4-carboxamide], in that order: > 500 nM, 1.00 and > 500 nM.
Turning to `C[C@H](Nc1nc(C(=O)N2CCC[C@@H]2C)c2sccc2n1)c1cccnc1` [Example Z36, ((S)-2-Methylpyrrolidin-1-yl)(2-(((S)-1-(pyridin-3-yl)ethyl)amino)thieno[3,2-d]pyrimidin-4-yl)methanone], on adenosine A2A receptor, the IC50 fell in the range of 100 to 500 nM. On adenosine A2B receptor, the Ratio came to 1.55 and the IC50 is 100 to 500 nM.
For `C[C@H](Nc1nc(C(=O)N2CCC[C@H]2C)c2sccc2n1)c1cccnc1` [Example Z37, ((R)-2-Methylpyrrolidin-1-yl)(2-(((S)-1-(pyridin-3-yl)ethyl)amino)thieno[3,2-d]pyrimidin-4-yl)methanone], the IC50 at adenosine A2A receptor is > 500 nM; at adenosine A2B receptor, 100 to 500 nM. Also, the Ratio at adenosine A2B receptor turned out to be 64.10.
Turning to `COc1ccc(CNc2nc(C(=O)N3CCCC3)c3sccc3n2)cc1OC` [Example Z38, (2-((3,4-Dimethoxybenzyl)amino)thieno[3,2-d]pyrimidin-4-yl)(pyrrolidin-1-yl)methanone], the IC50 on adenosine A2A receptor and at adenosine A2B receptor was > 500 nM throughout. The Ratio on adenosine A2B receptor is 1.00.
Take `O=C(c1nc(NCc2ccccc2)nc2ccsc12)N1CCCC1` [Example Z39, (2-(Benzylamino)thieno[3,2-d]pyrimidin-4-yl)(pyrrolidin-1-yl)methanone]: the IC50 at adenosine A2A receptor lay in the range of 100 to 500 nM. Also, at adenosine A2B receptor, the Ratio is reported as 1.22 and the IC50 lay within 100 to 500 nM.
Regarding `O=C(c1nc(NCc2ccccc2)nc2ccsc12)N1CC[C@H](O)C1` [Example Z40, (S)-(2-(Benzylamino)thieno[3,2-d]pyrimidin-4-yl)(3-hydroxypyrrolidin-1-yl)methanone], the IC50 at adenosine A2A receptor is > 500 nM; on adenosine A2B receptor, 100 to 500 nM. For the same molecule, the Ratio at adenosine A2B receptor came out at 21.05.
For `CCN(CC)C(=O)c1nc(N[C@@H](C)c2cccnc2)nc2ccsc12` [Example Z41, (S)—N,N-Diethyl-2-((1-(pyridin-3-yl)ethyl)amino)thieno[3,2-d]pyrimidine-4-carboxamide], the IC50 on adenosine A2A receptor and at adenosine A2B receptor was > 500 nM each time. Also, the Ratio at adenosine A2B receptor stood at 1.00.
As to `O=C(c1nc(NCc2cccnn2)nc2ccsc12)N1CCCC1` [Example Z43, (2-((Pyridazin-3-ylmethyl)amino)thieno[3,2-d]pyrimidin-4-yl)(pyrrolidin-1-yl)methanone], the IC50 at adenosine A2A receptor was > 500 nM; at adenosine A2B receptor, 100 to 500 nM. Besides, at adenosine A2B receptor, the Ratio amounted to 33.44.
Turning to `CC(NC(=O)c1nc(NC(C)c2cccnc2)nc2ccsc12)c1cccnc1` (stereo not drawn) [Example Z44, N-(1-(Pyridin-3-yl)ethyl)-2-((1-(pyridin-3-yl)ethyl)amino)thieno[3,2-d]pyrimidine-4-carboxamide], the IC50 at adenosine A2A receptor was > 500 nM. Besides, on adenosine A2B receptor, the Ratio was 44.44 and the IC50 fell in the range of 100 to 500 nM.
As for `Cc1cncc(CNC(=O)c2nc(NCc3cncc(C)c3)nc3ccsc23)c1` [Example Z45, N-((5-Methylpyridin-3-yl)methyl)-2-(((5-methylpyridin-3-yl)methyl)amino)thieno[3,2-d]pyrimidine-4-carboxamide], the IC50 on adenosine A2A receptor was > 500 nM. At adenosine A2B receptor, the Ratio was 1.00 and the IC50 is > 500 nM.
For `C[C@H](Nc1nc(C(=O)N2CCC[C@@H]2CO)c2sccc2n1)c1cccnc1` [Example Z46, ((R)-2-(Hydroxymethyl)pyrrolidin-1-yl)(2-(((S)-1-(pyridin-3-yl)ethyl)amino)thieno[3,2-d]pyrimidin-4-yl)methanone], the IC50 was > 500 nM at adenosine A2A receptor and 100 to 500 nM at adenosine A2B receptor. The Ratio at adenosine A2B receptor amounted to 30.80.
For `C[C@H](Nc1nc(C(=O)N2CCC[C@H]2CO)c2sccc2n1)c1cccnc1` [Example Z47, ((S)-2-(Hydroxymethyl)pyrrolidin-1-yl)(2-(((S)-1-(pyridin-3-yl)ethyl)amino)thieno[3,2-d]pyrimidin-4-yl)methanone], in that order: > 500 nM, > 500 nM and 1.00.
For `CC(Nc1nc(C(=O)N2CC[C@@H](F)C2)c2sccc2n1)c1cccnc1` (stereo partly drawn) [Example Z48, ((R)-3-Fluoropyrrolidin-1-yl)(2-((1-(pyridin-3-yl)ethyl)amino)thieno[3,2-d]pyrimidin-4-yl)methanone], in that order: 100 to 500 nM, 10 to 50 nM and 9.26.
For `COc1ccc(CNC(=O)c2nc(NC(C)c3ccccn3)nc3ccsc23)cn1` (stereo not drawn) [Example Z49, N-((6-Methoxypyridin-3-yl)methyl)-2-((1-(pyridin-2-yl)ethyl)amino)thieno[3,2-d]pyrimidine-4-carboxamide], in that order: 100 to 500 nM, 100 to 500 nM and 0.62.
As to `O=C(NCc1ccccc1)c1nc(NCc2ccccc2)nc2ccsc12` [Example Z51, N-Benzyl-2-(benzylamino)thieno[3,2-d]pyrimidine-4-carboxamide], the IC50 on adenosine A2A receptor fell in the range of 100 to 500 nM. At adenosine A2B receptor, the Ratio is given as 0.40 and the IC50 fell in the range of 100 to 500 nM.
For `Cc1cncc(CNc2nc(C(=O)N3CC[C@H](O)C3)c3sccc3n2)c1` [Example Z56, (S)-(3-Hydroxypyrrolidin-1-yl)(2-(((5-methylpyridin-3-yl)methyl)amino)thieno[3,2-d]pyrimidin-4-yl)methanone], the 50% inhibitory concentration (IC50) on adenosine A2A receptor is > 500 nM; at adenosine A2B receptor, 100 to 500 nM. In addition, the Ratio on adenosine A2B receptor is given as 50.76.
For `COc1ccc(CNC(=O)c2nc(NCc3cncc(C)c3)nc3ccsc23)cn1` [Example Z57, N-((6-Methoxypyridin-3-yl)methyl)-2-(((5-methylpyridin-3-yl)methyl)amino)thieno[3,2-d]pyrimidine-4-carboxamide], in that order: 100 to 500 nM, 100 to 500 nM and 1.41.
For `C[C@H](Nc1nc(C(=O)NCc2ccc(C#N)nc2)c2sccc2n1)c1ccccn1` [Example Z64, (S)—N-((6-Cyanopyridin-3-yl)methyl)-2-((1-(pyridin-2-yl)ethyl)amino)thieno[3,2-d]pyrimidine-4-carboxamide], in that order: 100 to 500 nM, 100 to 500 nM and 1.94.
For `COc1ccc(NC(=O)c2nc(N[C@@H](C)c3ccccn3)nc3ccsc23)cn1` [Example Z65, (S)—N-(6-Methoxypyridin-3-yl)-2-((1-(pyridin-2-yl)ethyl)amino)thieno[3,2-d]pyrimidine-4-carboxamide], in that order: > 500 nM, 50 to 100 nM and 14.95.
As to `COc1ccc(CNC(=O)c2nc(NCc3cncc(F)c3)nc3ccsc23)cn1` [Example Z67, 2-(((5-Fluoropyridin-3-yl)methyl)amino)-N-((6-methoxypyridin-3-yl)methyl)thieno[3,2-d]pyrimidine-4-carboxamide], the IC50 at adenosine A2A receptor lay in the range of 100 to 500 nM; at adenosine A2B receptor, 10 to 50 nM.
Turning to `O=C(NCC1CCN(Cc2ccccc2)CC1)c1nc(NCc2cncc(F)c2)nc2ccsc12` [Example Z68, N-((1-Benzylpiperidin-4-yl)methyl)-2-(((5-fluoropyridin-3-yl)methyl)amino)thieno[3,2-d]pyrimidine-4-carboxamide], the IC50 on adenosine A2A receptor and at adenosine A2B receptor was 50 to 100 nM in each case.
